How the values were obtained:
[1] = test system: HAP1 cells; assay: Cell cycle analysis by flow cytometry (double thymidine block or asynchronous BrdU/propidium iodide); assay type: cell-based, human; settings: WT cells expressing or exposed to the C-terminal CSNAP segment; release from double thymidine block (FIG. 9)
Method: UV treated cells were exposed to 5 J/m^2 dose at release, and fixed with ethanol at different time points. Cell cycle phases were assessed by flow cytometry (LSRII, BD Biosciences) following propidium iodide staining. Asynchronous cells were analyzed using propidium iodide and BrdU double staining. 10^5 cells were denatured after fixation using 2N HCl, 0.5% Triton X-100 in PBS for 30 minutes, neutralized in 0.1M Na2B4O7 pH8.5 and incubated with 5 μl of anti-BrdU-FITC (eBioscience 11-5071-41) 1% BSA, 0.5% Triton X-100 in PBS for 1 hour. Cells were washed in 1% BSA in PBS and resuspended in PBS containing 50 μg/ml propidium iodide and 50 μg/ml RNAse A, and analyzed in FACSAria Fusion flow cytometer (BD Biosciences).

[2] = test system: cells; assay: Cell death in cells exposed to the C-terminal peptide; assay type: cell-based

DFFNDFEDLFDDDDIQ [C-terminal peptide, peptide comprising the C-terminal region of CSNAP, responsible for assembly into the CSN complex]
cell cycle progression [1]: capable of preventing cell cycle progression | induction of cell death [2]: induce cell death
